According to patent publication US20130012466A1 (priority 2006, published 2013):
Like-named read-outs stand apart in the source and are kept apart here.

Legend:
[1] = tested on: mouse mammary normal epithelial control cell line; experiment: Cytotoxicity assay, normal control cell line
[2] = tested on: A549; experiment: Cytotoxicity assay (cell titer-glo and calcein AM), A549; conditions: A549, % error in parentheses
[3] = tested on: Du145; experiment: Cytotoxicity assay (cell titer-glo and calcein AM), Du145; conditions: Du145, % error in parentheses
[4] = tested on: Hep3B; experiment: Cytotoxicity assay (cell titer-glo and calcein AM), Hep3B; conditions: Hep 3B, % error in parentheses
[5] = tested on: SF-268; experiment: Cytotoxicity assay (cell titer-glo and calcein AM), SF-268; conditions: SF-268, % error in parentheses
[6] = tested on: SK-OV-3; experiment: Cytotoxicity assay (cell titer-glo and calcein AM), SK-OV-3; conditions: SK-OV-3, % error in parentheses
[7] = tested on: ADR-RES; experiment: Cytotoxicity assay (cell titer-glo and calcein AM), ADR-RES; conditions: NCI/ADR RES, % error in parentheses
[8] = tested on: NCI-H460; experiment: Cytotoxicity assay (cell titer-glo and calcein AM), NCI-H460; conditions: NCI-H460, % error in parentheses
[9] = tested on: MCF7; experiment: Cytotoxicity assay (cell titer-glo and calcein AM), MCF7
[10] = read-out: Cytotoxicity IC50, NmuMG, CTG, CTG (cell titer-glo) readout, % error in parentheses
[11] = read-out: Cytotoxicity IC50, NmuMG, calcein, calcein AM readout, % error in parentheses
[12] = read-out: Cytotoxicity IC50, A549, CTG, CTG (cell titer-glo) readout
[13] = read-out: Cytotoxicity IC50, A549, calcein, calcein AM readout
[14] = read-out: Cytotoxicity IC50, Du145, CTG, CTG (cell titer-glo) readout
[15] = read-out: Cytotoxicity IC50, Du145, calcein, calcein AM readout
[16] = read-out: Cytotoxicity IC50, Hep 3B, CTG, CTG (cell titer-glo) readout
[17] = read-out: Cytotoxicity IC50, Hep 3B, calcein, calcein AM readout
[18] = read-out: Cytotoxicity IC50, SF-268, CTG, CTG (cell titer-glo) readout
[19] = read-out: Cytotoxicity IC50, SF-268, calcein, calcein AM readout
[20] = read-out: Cytotoxicity IC50, SK-OV-3, CTG, CTG (cell titer-glo) readout
[21] = read-out: Cytotoxicity IC50, SK-OV-3, calcein, calcein AM readout
[22] = read-out: Cytotoxicity IC50, NCI/ADR RES, CTG, CTG (cell titer-glo) readout
[23] = read-out: Cytotoxicity IC50, NCI/ADR RES, calcein, calcein AM readout
[24] = read-out: Cytotoxicity IC50, NCI-H460, CTG, CTG (cell titer-glo) readout
[25] = read-out: Cytotoxicity IC50, NCI-H460, calcein, calcein AM readout
[26] = read-out: Cytotoxicity IC50, MCF7, CTG, CTG (cell titer-glo) readout, % error in parentheses
[27] = read-out: Cytotoxicity IC50, MCF7, calcein, calcein AM readout, % error in parentheses

Compound | IC50 [1, 10] | IC50 [1, 11] | IC50 [2, 12] | IC50 [2, 13] | IC50 [3, 14] | IC50 [3, 15] | IC50 [4, 16] | IC50 [4, 17] | IC50 [5, 18] | IC50 [5, 19] | IC50 [6, 20] | IC50 [6, 21] | IC50 [7, 22] | IC50 [7, 23] | IC50 [8, 24] | IC50 [8, 25] | IC50 [9, 26] | IC50 [9, 27]
COc1cc2c(c(OC)c1OC)-c1ccc(OC)c(=O)cc1C(NC(=O)CN(OC)C1OCC(O)C(O)C1O)CC2 [Col22, L-riboside] | > 10 µM | > 10 µM | 4.22 µM | 9.44 µM | 2.38 µM | > 10 µM | 2.44 µM | 3.95 µM | 4.16 µM | 4.86 µM | 4.84 µM | 4.84 µM | 2.23 µM | 3.56 µM | 1.16 µM | 2 µM | 4.27 µM | 2.87 µM
COc1cc2c(c(OC)c1OC)-c1ccc(OC)c(=O)cc1[C@@H](NC(=O)CN(OC)[C@@H]1O[C@H](CN=[N+]=[N-])[C@H](O)[C@H](O)[C@H]1O)CC2 [Col43, 6-deoxy-6-azido-D-galactoside] | 3.82 µM | 3.93 µM | > 10 µM | > 10 µM | 4.87 µM | 4.19 µM | 5.3 µM | 3.89 µM | 5.15 µM | 8.46 µM | > 10 µM | 5.79 µM | 5.04 µM | 2.51 µM | 5.01 µM | 2.36 µM | 4.91 µM | 3.68 µM
COc1cc2c(c(OC)c1OC)-c1ccc(OC)c(=O)cc1[C@@H](NC(=O)CN(OC)[C@@H]1OC[C@@H](O)[C@H](O)[C@@H]1O)CC2 [Col1, D-lyxoside] | > 10 µM | 6.49 µM | 2.91 µM | 1.21 µM | 1.97 µM | 2 µM | 3.5 µM | 3.69 µM | 3.86 µM | 4 µM | 4 µM | 4 µM | 2.63 µM | 1.91 µM | 4.51 µM | 3.93 µM | 1.9 µM | 1.33 µM
COc1cc2c(c(OC)c1OC)-c1ccc(OC)c(=O)cc1[C@@H](NC(=O)CN(OC)[C@@H]1O[C@H](CSC(C)=O)[C@H](O)[C@H](O)[C@H]1O)CC2 [Col68, 6-deoxy-6-thio-acyl-D-galactoside] | 9.83 µM | 9.44 µM | 4.77 µM | 7.67 µM | 4.19 µM | 1.73 µM | 5.22 µM | 7.92 µM | 3.85 µM | 3.27 µM | 4.5 µM | 2.43 µM | 4.88 µM | 2.04 µM | 4.41 µM | 3.12 µM | 2.42 µM | 2.54 µM
COc1cc2c(c(OC)c1OC)-c1ccc(OC)c(=O)cc1[C@@H](NC(=O)CN(OC)[C@@H]1O[C@H](CF)[C@@H](O)[C@H](O)[C@H]1O)CC2 [Col54, 6-deoxy-6-fluoro-D-glucoside] | > 10 µM | > 10 µM | > 10 µM | > 10 µM | > 10 µM | > 10 µM | > 10 µM | 4.66 µM | > 10 µM | > 10 µM | > 10 µM | > 10 µM | > 10 µM | > 10 µM | 3.82 µM | 4.9 µM | > 10 µM | > 10 µM
COc1cc2c(c(OC)c1OC)-c1ccc(OC)c(=O)cc1C(NC(=O)CN(OC)C1OCC(O)C(O)C1O)CC2 [Col25, L-arabinoside] | 5.7 µM | > 10 µM | 5.02 µM | 5.26 µM | 7.4 µM | > 10 µM | > 10 µM | > 10 µM | 6.8 µM | 4.46 µM | 8.51 µM | 2.51 µM | 5.14 µM | 5.53 µM | 4.41 µM | 5.78 µM | 3.02 µM | 3.43 µM
COc1cc2c(c(OC)c1OC)-c1ccc(OC)c(=O)cc1[C@@H](NC(=O)CN(OC)[C@@H]1O[C@H](C(=O)O)[C@@H](O)[C@H](O)[C@H]1O)CC2 [Col15, D-glucuronoside] | > 5 µM | > 5 µM | 2.21 µM | 3.92 µM | 1.27 µM | 1.64 µM | 3.28 µM | 3.44 µM | 1.17 µM | 1.02 µM | 1.07 µM | 2.88 µM | 1.66 µM | 1.54 µM | 1.08 µM | 0.96 µM | 0.99 µM | 4.41 µM
COc1cc2c(c(OC)c1OC)-c1ccc(OC)c(=O)cc1[C@@H](NC(=O)CN(OC)[C@@H]1OC[C@@H](O)[C@H](O)[C@H]1O)CC2 [Col4, D-xyloside] | > 10 µM | > 10 µM | > 10 µM | > 10 µM | > 10 µM | > 10 µM | > 10 µM | > 3.35 µM | 8.26 µM | 8.93 µM | > 10 µM | > 10 µM | > 10 µM | > 10 µM | > 10 µM | > 10 µM | > 10 µM | > 10 µM
COc1cc2c(c(OC)c1OC)-c1ccc(OC)c(=O)cc1C(NC(=O)CN(OC)C1OCC(O)C(O)C1O)CC2 [Col7, L-lyxoside] | > 10 µM | > 10 µM | > 10 µM | 9.76 µM | > 10 µM | 4.73 µM | 4.89 µM | 4.74 µM | 4.97 µM | 4.9 µM | > 10 µM | 5.04 µM | > 10 µM | > 10 µM | 7.08 µM | 5.69 µM | 2.65 µM | 3.99 µM
COc1cc2c(c(OC)c1OC)-c1ccc(OC)c(=O)cc1[C@@H](NC(=O)CN(OC)[C@@H]1O[C@H](C)[C@H](O)[C@H](O)[C@H]1O)CC2 [Col9, D-fucoside] | > 10 µM | > 10 µM | > 10 µM | > 10 µM | > 10 µM | > 9.14 µM | > 10 µM | > 10 µM | > 10 µM | > 10 µM | > 10 µM | > 7.83 µM | > 10 µM | > 10 µM | > 10 µM | > 10 µM | > 9.96 µM | > 8.75 µM
COc1cc2c(c(OC)c1OC)-c1ccc(OC)c(=O)cc1[C@@H](NC(=O)CN(OC)[C@@H]1O[C@H](CO)[C@H](O)[C@H](O)[C@H]1NC(C)=O)CC2 [Col28, N-acetyl-D-galactosaminoside] | > 10 µM | 9.57 µM | > 10 µM | > 10 µM | > 10 µM | > 10 µM |  | > 10 µM | 5.7 µM | 3.56 µM | 5.18 µM | 7.32 µM | 9.95 µM | > 10 µM | 9.76 µM | > 10 µM | 4.87 µM | 6.67 µM
CCCCCCCCCC(=O)NC[C@H]1O[C@@H](N(CC(=O)N[C@H]2CCc3cc(OC)c(OC)c(OC)c3-c3ccc(OC)c(=O)cc32)OC)[C@H](O)[C@@H](O)[C@@H]1O [Col59, 6-deoxy-6-N-decanoyl-D-glucosaminoside] | > 10 µM | 8.43 µM | 8.14 µM | > 10 µM | 5.28 µM | 7.09 µM | 5.7 µM | 7.36 µM | 5.53 µM | 9.44 µM | 5.08 µM | 7.11 µM | 5.16 µM | 7.97 µM | 4.95 µM | 5.21 µM | 5.51 µM | 6.19 µM
